For eleven compounds, Ki results are on record in patent publication US8461328B2, “Tricyclic heterocyclic compounds, compositions and methods of use thereof” (Genentech, Inc., priority 2010, dated 2013).

Format in all cases: biochemical
The target in assay [1] is T1, JAK1 (Homo sapiens, UniProt P23458).
T1 construct: made in house; host or cells: SF9 insect cells (baculovirus)
The assay is described as follows: JAK1 inhibition (Table 4). As to conditions: read-out: JAK1 Ki.

The target of assay [2] is T2, JAK2 (Homo sapiens, UniProt O60674).
T2 construct: made in house; host or cells: SF9 insect cells (baculovirus)
The assay is described as follows: JAK2 inhibition (Table 4). As to conditions: read-out: JAK2 Ki.

Assay [3] deals with T3, JAK3 (Homo sapiens, UniProt P52333).
T3 construct: made in house; host or cells: SF9 insect cells (baculovirus)
The assay is described as follows: JAK3 inhibition (Table 4). As to conditions: read-out: JAK3 Ki.

Assay [4] concerns the target T4, TYK2 (Homo sapiens, UniProt P29597).
T4 construct: made in house; host or cells: SF9 insect cells (baculovirus)
T4 sequence (P29597 873-1187): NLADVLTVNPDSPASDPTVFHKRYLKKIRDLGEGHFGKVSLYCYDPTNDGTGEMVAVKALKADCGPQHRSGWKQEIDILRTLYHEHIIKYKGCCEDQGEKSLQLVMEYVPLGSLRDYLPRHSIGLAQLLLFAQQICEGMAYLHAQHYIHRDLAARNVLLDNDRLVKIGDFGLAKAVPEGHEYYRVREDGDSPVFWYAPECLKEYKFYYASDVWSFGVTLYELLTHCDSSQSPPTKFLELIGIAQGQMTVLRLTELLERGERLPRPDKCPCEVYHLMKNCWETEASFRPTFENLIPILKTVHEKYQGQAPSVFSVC
The assay is described as follows: TYK2 inhibition (Table 4).

The structures appear in SMILES notation.

As usually defined, the Ki is a dissociation constant, usually derived from enzyme kinetics or from competition with a known ligand.

T2 sequence (O60674 812-1132): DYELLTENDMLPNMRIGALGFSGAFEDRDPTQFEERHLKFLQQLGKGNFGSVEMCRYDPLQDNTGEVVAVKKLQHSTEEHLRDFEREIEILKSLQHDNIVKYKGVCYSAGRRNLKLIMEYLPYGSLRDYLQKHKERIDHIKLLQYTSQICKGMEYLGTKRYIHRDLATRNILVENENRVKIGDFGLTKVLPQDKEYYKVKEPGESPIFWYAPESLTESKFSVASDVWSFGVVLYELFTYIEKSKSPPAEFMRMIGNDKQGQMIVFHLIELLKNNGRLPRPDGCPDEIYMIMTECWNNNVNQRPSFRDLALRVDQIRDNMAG
T3 sequence (P52333 783-1124): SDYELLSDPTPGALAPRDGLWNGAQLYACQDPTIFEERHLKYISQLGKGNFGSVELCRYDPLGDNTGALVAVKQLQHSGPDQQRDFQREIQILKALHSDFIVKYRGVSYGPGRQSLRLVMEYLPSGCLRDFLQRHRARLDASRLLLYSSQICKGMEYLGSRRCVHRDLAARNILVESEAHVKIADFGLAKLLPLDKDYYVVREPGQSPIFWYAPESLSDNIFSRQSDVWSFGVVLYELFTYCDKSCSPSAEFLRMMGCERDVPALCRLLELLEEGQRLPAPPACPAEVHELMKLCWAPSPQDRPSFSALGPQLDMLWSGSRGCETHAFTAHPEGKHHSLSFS
T1 sequence (P23458 852-1154): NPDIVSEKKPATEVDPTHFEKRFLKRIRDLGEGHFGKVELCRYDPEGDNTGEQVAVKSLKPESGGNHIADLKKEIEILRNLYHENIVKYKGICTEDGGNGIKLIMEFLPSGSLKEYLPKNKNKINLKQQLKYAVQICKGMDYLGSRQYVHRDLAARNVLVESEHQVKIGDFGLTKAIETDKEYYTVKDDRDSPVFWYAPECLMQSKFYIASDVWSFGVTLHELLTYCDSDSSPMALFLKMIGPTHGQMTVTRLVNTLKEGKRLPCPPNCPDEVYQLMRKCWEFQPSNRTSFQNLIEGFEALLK

Regarding `N#Cc1ccc(N[C@H]2CC[C@H](n3cnc4cnc5[nH]ccc5c43)CC2)nc1` [Example 176, Trans 6-[4-(6H-1,2,3,5,6-Tetraaza-as-indacen-1-yl)-cyclohexylamino]-nicotinonitrile], the inhibitory constant (Ki) stood at 2.16 nM in assay [1], 7.05 nM in assay [2], 95.8 nM in assay [3] and 24.3 nM in assay [4].

In the case of `CN1CCC[C@H]1CN1CCC(n2cnc3cnc4[nH]ccc4c32)CC1` [Example 177, 1-[1-((S)-1-Methyl-pyrrolidin-2-ylmethyl)-piperidin-4-yl]-1,6-dihydro-1,2,3,5,6-tetraaza-as-indacene], the Ki was determined as 42 nM in assay [1], 144 nM in assay [2], 1400 nM in assay [3] and 519 nM in assay [4].

Take `Cc1nc2cnc3[nH]ccc3c2n1C1CCOC(C)(C)C1` (centres unmarked) [Example 178, 1-(2,2-Dimethyl-tetrahydro-pyran-4-yl)-2-methyl-1,6-dihydro-1,2,3,5,6-tetraaza-as-indacene]: the inhibition constant (Ki) in assay [1] was 73.8 nM; in assay [2] it was 22.3 nM; in assay [3], 16.2 nM; in assay [4] it was 104 nM.

For the compound `FC1(F)CN(Cc2ccccc2)CCC1n1cnc2cnc3[nH]ccc3c21` (centres unmarked) [Example 179, 1-(1-Benzyl-3,3-difluoro-piperidin-4-yl)-1,6-dihydro-1,2,3,5,6-tetraaza-as-indacene], the Ki came to 0.58 nM in assay [1], 1.11 nM in assay [2], 13.2 nM in assay [3] and 21.6 nM in assay [4].

For the compound `O=CN1CCC(n2cnc3cnc4[nH]ccc4c32)C(F)(F)C1` (centres unmarked) [Example 180, 3,3-Difluoro-4-(6H-1,2,3,5,6-tetraaza-as-indacen-1-yl)-piperidine-1-carbaldehyde], the inhibitory constant (Ki) in assay [1] worked out at 5.55 nM; in assay [2], 19.9 nM; in assay [3], 101 nM; in assay [4], 63.2 nM.

`Cc1nc2cnc3[nH]ccc3c2n1-c1ccc(C#N)cc1` [Example 183, 4-(2-Methyl-6H-1,2,3,5,6-tetraaza-as-indacen-1-yl)-benzonitrile]: the Ki in assay [1] amounted to 20.4 nM; in assay [2], 44.9 nM; in assay [3], 650 nM; in assay [4], 72.7 nM.

Take `OCCN1CC[C@@H](n2cnc3cnc4[nH]ccc4c32)C1` [Example 184, 2-[(R)-3-(6H-1,2,3,5,6-Tetraaza-as-indacen-1-yl)-pyrrolidin-1-yl]-ethanol]: the inhibition constant (Ki) in assay [1] turned out to be 94.7 nM; in assay [2], 250 nM; in assay [3] it was 1490 nM; in assay [4], 644 nM.

With `CC(C)(O)CN1CC[C@@H](n2cnc3cnc4[nH]ccc4c32)C1` [Example 185, 2-Methyl-1-[(R)-3-(6H-1,2,3,5,6-tetraaza-as-indacen-1-yl)-pyrrolidin-1-yl]-propan-2-ol], the inhibition constant Ki was 105 nM in assay [1], 162 nM in assay [2], 502 nM in assay [3] and 708 nM in assay [4].

On to `CC(C)(C#N)C(=O)N1CC[C@@H](n2cnc3cnc4[nH]ccc4c32)C1` [Example 186, 2,2-Dimethyl-3-oxo-3-[(R)-3-(6H-1,2,3,5,6-tetraaza-as-indacen-1-yl)-pyrrolidin-1-yl]-propionitrile], for which the inhibitory constant (Ki) turned out to be 220 nM in assay [1], 167 nM in assay [2], 3170 nM in assay [3] and 1500 nM in assay [4].

Regarding `N#CCCN1CC[C@@H](n2cnc3cnc4[nH]ccc4c32)C1` [Example 187, 3-[(R)-3-(6H-1,2,3,5,6-Tetraaza-as-indacen-1-yl)-pyrrolidin-1-yl]-propionitrile], the Ki in assay [1] was 10.1 nM; in assay [2], 22.3 nM; in assay [3], 57.6 nM; in assay [4], 58.8 nM.

On to `CC(=O)N1CC[C@@H](n2cnc3cnc4[nH]ccc4c32)C1` [Example 188, 1-[(R)-3-(6H-1,2,3,5,6-Tetraaza-as-indacen-1-yl)-pyrrolidin-1-yl]-ethanone], for which the inhibition constant Ki is 68.5 nM in assay [1], 161 nM in assay [2], 778 nM in assay [3] and 672 nM in assay [4].
